Laboratory results reported in patent publication US20070036717A1, “Chemoradiotherapy with TS-1/camptothecins” (The Kitasato Gakuen Foundation, priority 2005, published 2007).
Counter-ions that a name gives are not always drawn.

Assay: Adverse reactions (NCI-CTC Version 2.0), maximum tolerated and recommended dose of CPT-11
Format: in vivo, human patients
Conditions: with TS-1 80 mg/m^2/day and radiation 45 Gy
Procedure: A Phase I/II clinical study of preoperative chemoradiotherapy with TS-1/CPT-11 was conducted to estimate the maximum tolerated dose (MTD) and recommended dose (RD) of CPT-11. The subjects had cancer of the rectum (excluding the rectosigmoid (Rs)) with a preoperative diagnosis of T3′ (tumors showing invasion through the muscularis propria into the subserosa, or into the nonperitonealized pericolic or perirectal tissues) or T4′ (tumors perforating the visceral peritoneum and/or directly invading other organs or structures), and N0 to N3′. Response rates and safety (percentage of adverse reactions and percentage of complications) were also evaluated with RD administration. (2) Subject selection
Level 1 (CPT-11, 40 mg/m^2) was the starting dose, and dose was titrated until the maximum tolerated dose could be estimated. […]
After the level of the maximum tolerated dose was confirmed, the recommended dose was determined by reducing the 10 mg/m^2 (one level) increments.
Maximum tolerated dose was determined on the basis of the adverse reactions observed during the first week after completing chemotherapy. (Maximum tolerated dose was evaluated in the modality of coadministration with radiation.)
Side effects were evaluated according to the National Cancer Institute Common Toxicity Criteria (Version 2.0; NCI-CTC). Effects not on the NCI-CTC form were scored on the following five-grade scale.

CCc1c2c(nc3ccc(OC(=O)N4CCC(N5CCCCC5)CC4)cc13)-c1cc3c(c(=O)n1C2)COC(=O)[C@]3(O)CC [CPT-11, (4S)-4a, 11-diethyl-4β-hydroxy-9-[[4-(piperidin-1-yl)piperidin-1-yl]carbonyloxy]1H-pyrano[3′,4′:6,7]indolizino[1,2-b]quinoline-3,14-(4H,12H)dione hydrochloride salt]
final recommended dose of CPT-11: 80 mg/m^2
